According to ChEMBL document CHEMBL1141729, “Two new cytotoxic compounds from Tapirira guianensis” (J Nat Prod, 1998):
Converted amounts (≈) assume the structure as drawn.

What was measured:
Format in all cases: functional, cell-based
KB = experiment: Cytotoxicity against human KB cells
[1] = Cytotoxicity against human BC1 cells
Col2 = experiment: Cytotoxicity against human Col2 cells
[2] = Cytotoxicity against vinblastine-resistant human KBV1 cells in presence of vinblastine; conditions: KB-V1
LNCaP = experiment: Cytotoxicity against human LNCAP cells
Lu1 = experiment: Cytotoxicity against human Lu1 cells
[3] = Cytotoxicity against vinblastine-resistant human KBV1 cells; conditions: KB-V1

Row | SMILES | IC50 (KB) | IC50 [1] | IC50 (Col2) | IC50 [2] | IC50 (LNCaP) | IC50 (Lu1) | IC50 [3]
1 | CCCCCC/C=C\CCCCCCCCCc1cc(O)ccc1O | 0.5 µg/mL (≈ 1.44 µM) | 1.3 µg/mL (≈ 3.75 µM) | 0.8 µg/mL (≈ 2.31 µM) | 0.5 µg/mL | 0.2 µg/mL (≈ 0.577 µM) | 0.3 µg/mL (≈ 0.866 µM) | 0.6 µg/mL (≈ 1.73 µM)
2 | CCCCCC/C=C\CCCCCCCCC[C@]1(O)C=CC(=O)[C@@H](O)C1 | 1.5 µg/mL (≈ 4.11 µM) | 4.3 µg/mL (≈ 11.8 µM) | 1.8 µg/mL (≈ 4.94 µM) | 4.1 µg/mL | 0.3 µg/mL (≈ 0.823 µM) | 4.4 µg/mL (≈ 12.1 µM) | 4.2 µg/mL (≈ 11.5 µM)
